Experimental data published in publication PMC9767416, “Discovery of small molecule mechanistic target of rapamycin inhibitors as anti-aging and anti-cancer therapeutics” (Frontiers in Aging Neuroscience, 2022).
Like-named read-outs stand apart in the source and are kept apart here.

Assays:
[1] = Dissociation constants by spectrophotometric titration; format: physicochemical; conditions: 20°C; for pKa: ultrapure water
Procedure: The spectrophotometric titration was used for dissociation constants’ determination, utilizing spectrophotometer Agilent Cary-60 (Agilent Technologies, CA, USA), pH meter WTW InoLab_IDS Multi 9430 (WTW, Czech Republic), and pH electrode SenTix® Mic (WTW, Czech Republic). Data were analyzed by GraphPadPrism 8.0 software (GraphPad Software, CA, USA). The analyzed samples were prepared by adding 20 μL of compound stock solution (2 mg/mL) and 20 μL of 0.1 M hydrochloric acid into the cuvette with ultrapure water (total volume 3.5 mL). The samples were titrated by 0.1 M sodium hydroxide at 20°C while acquiring absorption spectra (190–500 nm) at different pH values. Absorbance at the chosen wavelength was plotted as a function of pH. The inflection point in the given plot was used for pKa value determination.

[2] = test system: C57BL/6 (B6) male mice; experiment: Blood counts in the tolerability study; format: in vivo
Procedure: Compounds were dissolved in 20 μL DMSO and completed into 200 μL with corn oil.
During the experiments, mice behavior and possible apparent signs of toxicity were monitored daily. The body weights were determined on days 0, 4, and 8. On day 8, blood (25 μL) was withdrawn using a capillary pipette containing anticoagulant (heparin) from the retroorbital sinus into EDTA-containing tubes. Basic hematological parameters were measured using the Mindray BC-5300 Vet. Mice were then killed, autopsied, and abdominal organs (spleen, liver, and kidney) were removed for visual examination and imaging by a digital camera. Single-cell suspensions from the spleens were prepared by homogenization through a cell strainer (70 μm; BD Biosciences, San Jose, CA, USA). Erythrocytes were osmotically lysed using ammonium chloride-potassium lysis buffer, and the cell suspensions were washed three times in the RPMI-1640 medium and used for further analysis by flow cytometry for selected cell populations.

[3] = Shake-flask partition coefficient logP and distribution coefficient logD (pH 7.4); format: physicochemical; conditions: for logD: n-octanol/sodium phosphate buffer pH 7.4; for logP: n-octanol/water
Procedure: Before the initiation of the intended experiments, all solvents were mutually saturated at 21°C. […] For saturation, large stock bottles containing n-octanol and 12% of water/buffer or water/buffer and 12% of n-octanol were shaken for 30 mins on a mechanical shaker and subsequently left to stand on the bench overnight until the phases separated. Approximately 0.50 mg of tested substance was added to the test vessels alongside with 1:1 volume ratio of saturated solvents (250 μL). The test vessels were shaken on the mechanical shaker (Multi Reax, Heidolph Instruments, Schwabach, Germany) for 30 min at the highest speed and then centrifuged for phase separation (16.873 × g for 5 min; Eppendorf 5418 Microcentrifuge, Prague, Czech Republic). Both organic and aqueous phases were sampled for LC-MS analysis. UHPLC-DAD-MS (UHPLC Infinity II 1290, detection by DAD and QqQ 6470; Agilent Technologies, CA, USA; separation on Arion C18 polar column 100 × 2.1 mm, 2.1 μm; Chromservis, Czech Republic) was used for determination of the exact concentration of tested substances. The total quantity of substance (in both phases) was used for logP/logD values calculation.

[4] = test system: TMZ-U87 cells; experiment: Time-lapse microscopy with annexin V of TMZ-induced senescent U87; format: cell-based, human; conditions: 0–100 μM, 72 h
Procedure: To obtain ionizing radiation (IR)-induced senescent cells, proliferating RPE-1 cells were exposed to a single dose of X-rays (20 Gy) using Pantak HF160 (Gulmay, Surrey, UK) X-ray instrument equipped with Pantak Seifert HF320 generator, MXR-161 X-ray tube (Comet AG, Flamatt, Switzerland), and an aluminum filter using current 1–10 mA. After irradiation, the cells were cultured for an additional 7 days until the development of the senescent phenotype ([Salovska et al., 2022]). To induce docetaxel-induced senescence (DIS), BJ cells were exposed to 5 nM docetaxel for 7 days, as described previously ([Sapega et al., 2018]). To prepare temozolomide (TMZ)-induced senescence, U87 cells were exposed to 100 μM TMZ for 14 days.
For auto-monitoring of cells, Incucyte SX1 Live-Cell Analysis System (Sartorius, Göttingen, Germany), located in an incubator maintained at 37°C under a 5% CO2 atmosphere and 95% humidity, was utilized. The images (1,408 × 1,040 pixels at 1.24 microns/pixel) were acquired using a 10× objective lens in phase contrast, red fluorescence (excitation: 585 ± 20 nm, emission: 635 [625, 705] nm, acquisition time: 100 ms) channels every 60 min during 72 h. The first image was acquired 30 min after adding compounds. The images were processed to measure cell confluence using Incucyte software (version 2022A). […]

[5] = mice, 5 mg/kg p.o. days 0, 3, 5, blood day 8, AVG
[6] = mice, 25 mg/kg p.o. days 0, 3, 5, blood day 8, AVG
[7] = mice, 50 mg/kg p.o. days 0, 3, 5, blood day 8, AVG
[8] = mice, 5 mg/kg p.o. days 0, 3, 5, blood day 8, AVG, in 10^9/L (unit assumed)
[9] = mice, 5 mg/kg p.o. days 0, 3, 5, blood day 8, AVG, in fL (unit assumed)
[10] = mice, 5 mg/kg p.o. days 0, 3, 5, blood day 8, AVG, in g/L (unit assumed)
[11] = mice, 25 mg/kg p.o. days 0, 3, 5, blood day 8, AVG, in 10^9/L (unit assumed)
[12] = mice, 25 mg/kg p.o. days 0, 3, 5, blood day 8, AVG, in fL (unit assumed)
[13] = mice, 25 mg/kg p.o. days 0, 3, 5, blood day 8, AVG, in g/L (unit assumed)
[14] = mice, 50 mg/kg p.o. days 0, 3, 5, blood day 8, AVG, in 10^9/L (unit assumed)
[15] = mice, 50 mg/kg p.o. days 0, 3, 5, blood day 8, AVG, in fL (unit assumed)
[16] = mice, 50 mg/kg p.o. days 0, 3, 5, blood day 8, AVG, in g/L (unit assumed)

## Nc1ccc(C(=O)Nc2cccc(-c3c[nH]c4ncccc34)c2)cc1O [Compound 3, N-(3-(1H-pyrrolo[2,3-b]pyridin-3-yl)phenyl)-4-amino-3-hydroxybenzamide]
[1]; read-out: pKa1
  pKa: 3.6 ± 0.29
[1]; read-out: pKa2
  pKa: 7.91 ± 0.15
[2]; [5]
  MPV: 5.67
[2]; [6]
  MPV: 5.37
[2]; [7]
  MPV: 5.20
[2]; mouse, in vivo, po, 5 mg/kg
  Eos: 0.88
  HGB: 131.00
  HOT: 0.44
  MCH: 15.90
  MCHC: 296.33
  MCV: 53.70
  Mon: 0.39 10^9/L
  Neu: 1.65
  PCT: 3.88
  PDW: 15.20
  PLT: 677.33
  RBC: 8.28 10^12/L
  RDW-CV: 0.14
  RDW-SD: 31.27
  WBC: 12.56
  lvm: 9.60
[2]; mouse, in vivo, po, 25 mg/kg
  Eos: 0.74
  HGB: 136.00
  HOT: 0.46
  MCH: 15.53
  MCHC: 294.00
  MCV: 52.77
  Mon: 0.52 10^9/L
  Neu: 1.47
  PCT: 1.77
  PDW: 14.93
  PLT: 330.00
  RBC: 8.76 10^12/L
  RDW-CV: 0.15
  RDW-SD: 32.23
  WBC: 11.49
  lvm: 8.71
[2]; mouse, in vivo, po, 50 mg/kg
  Eos: 0.43
  HGB: 150.67
  HOT: 0.52
  MCH: 15.10
  MCHC: 289.33
  MCV: 52.07
  Mon: 0.72 10^9/L
  Neu: 0.86
  PCT: 3.92
  PDW: 14.70
  PLT: 751.67
  RBC: 9.99 10^12/L
  RDW-CV: 0.13
  RDW-SD: 29.03
  WBC: 8.25
  lvm: 6.23
[3]; n-octanol/sodium phosphate buffer, pH 7.4, shake-flask, read-out: logD
  logD: 2.15 ± 0.02
[3]; shake-flask, read-out: logP
  logP: 2.08 ± 0.07
[4]
  cell phenotype in time-lapse microscopy, annexin V staining: loss of cell adhesion followed by cell death

## CC(C)n1nc(-c2cc3cc(O)ccc3[nH]2)c2c(N)ncnc21 [Torkinib, torkinib]
[1]
  pKa1: 3.96 ± 0.02
  pKa2: 10.37 ± 0.18
[2]; [5]
  Eos: 0.04
  HOT: 0.49
  MPV: 5.33
  Neu: 0.99
  PCT: 3.59
  PDW: 14.57
  RBC: 9.25 10^12/L
  RDW-CV: 0.14
  lvm: 8.67
[2]; [8]
  PLT: 690.67
  WBC: 10.43
[2]; [9]
  MCV: 53.73
  RDW-SD: 31.77
[2]; [10]
  HGB: 146.00
  MCHC: 296.67
[2]; mice, 5 mg/kg p.o. days 0, 3, 5, blood day 8, AVG, in pg (unit assumed)
  MCH: 15.97
[2]; mice, 5 mg/kg p.o. days 0, 3, 5, blood day 8, AVG, unit assumed
  Mon: 0.73 10^9/L
[2]; [6]
  Eos: 0.08
  HOT: 0.52
  MPV: 5.30
  Neu: 0.79
  PCT: 3.79
  PDW: 14.73
  RBC: 9.96 10^12/L
  RDW-CV: 0.14
  lvm: 6.68
[2]; [11]
  PLT: 712.00
  WBC: 8.14
[2]; [12]
  MCV: 51.90
  RDW-SD: 29.23
[2]; [13]
  HGB: 154.00
  MCHC: 298.00
[2]; mice, 25 mg/kg p.o. days 0, 3, 5, blood day 8, AVG, in pg (unit assumed)
  MCH: 15.50
[2]; mice, 25 mg/kg p.o. days 0, 3, 5, blood day 8, AVG, unit assumed
  Mon: 0.59 10^9/L
[2]; [7]
  Eos: 0.04
  HOT: 0.53
  MPV: 5.43
  Neu: 1.25
  PCT: 4.73
  PDW: 14.67
  RBC: 9.95 10^12/L
  RDW-CV: 0.14
  lvm: 6.32
[2]; [14]
  PLT: 873.67
  WBC: 8.70
[2]; [15]
  MCV: 53.27
  RDW-SD: 31.07
[2]; [16]
  HGB: 153.67
  MCHC: 290.33
[2]; mice, 50 mg/kg p.o. days 0, 3, 5, blood day 8, AVG, in pg (unit assumed)
  MCH: 15.50
[2]; mice, 50 mg/kg p.o. days 0, 3, 5, blood day 8, AVG, unit assumed
  Mon: 1.09 10^9/L
[2]; mice, p.o. 5, 25 and 50 mg/kg, blood day 8
  blood count analysis, overall finding: no abnormal changes
[3]; shake-flask
  logD: 2.75 ± 0.06
  logP: 2.65 ± 0.02
